US6103875A, “Antifungal compounds from pseudomonas viridiflava” (Pharmagenesis, Inc., priority 1997, dated 2000)
In brackets after ≈: the same amount, converted by molar mass.

Columns and labels:
Candida albicans 90028 = assay: Minimal inhibitory concentration test (modified NCCLS protocol); type: cell-based, Candida albicans (ATCC 90028)
Procedure: (§1) All fungi used for test purposes for sensitivity to the ecomycins were obtained from the ATCC or from the mycological collection at Montana State University, Bozeman, Mont.
(§2) Samples of the semi-purified ecomycin preparation, purified Ecomycin A, and Ecomycin B were tested, along with a known antifungal compound, Amphotericin B, in a minimal inhibitory concentration test (MIC) modification of the NCCLS protocol (Galgiani, et al., 1995).

Candida albicans 90029 = assay: as above; type: cell-based, Candida albicans (ATCC 90029)
Procedure: as §1, §2

Candida glabrata 90030 = assay: as above; type: cell-based, Candida glabrata (ATCC 90030); details: Nakaseomyces glabratus
Procedure: as §1, §2

Candida kefir 46764 = assay: as above; type: cell-based, Candida kefir (ATCC 46764)
Procedure: as §1, §2

[1] = tested on: Candida parasilopsis 90018; assay: as above; type: cell-based, Candida parasilopsis (ATCC 90018)
Procedure: as §1, §2

[2] = tested on: Cryptococcus neoformans 90012; assay: as above; type: cell-based, Cryptococcus neoformans (ATCC 90012)
Procedure: as §1, §2

[3] = tested on: Cryptococcus neoformans 90013; assay: as above; type: cell-based, Cryptococcus neoformans (ATCC 90013)
Procedure: as §1, §2

Candida albicans = assay: Synergy with amphotericin B, inhibition of growth in 96-well plates; type: cell-based
Procedure: Briefly, in turning now to the illustrative experiments described in Example 11, varying amounts of amphotericin B were added to varying concentrations of an exemplary composition containing the antifungal lipopeptides of the present invention, extract EB-273, followed by a determination of the resulting inhibition of growth of Candida albicans.
Experiments were conducted with the semi-purified preparation of ecomycins (extract EB-273), added individually or in combination with sub-fungicidaldoses of Amphotericin B, to 96-well plates inoculated with C. albicans.

[4] = Thomas, 1986; cited from earlier work
[5] = cited from earlier work

C[C@@H]1[C@H](O)[C@@H](C)/C=C/C=C/C=C/C=C/C=C/C=C/C=C/[C@H](O[C@@H]2O[C@H](C)[C@@H](O)[C@H](N)[C@@H]2O)C[C@@H]2O[C@](O)(C[C@@H](O)C[C@@H](O)[C@H](O)CC[C@@H](O)C[C@@H](O)CC(=O)O[C@H]1C)C[C@H](O)[C@H]2C(=O)O [Amphotericin B]
MIC (Candida albicans 90028): 0.6 µg/mL (≈ 0.649 µM) | MIC (Candida albicans 90029): 0.6 µg/mL (≈ 0.649 µM) | MIC (Candida glabrata 90030): 0.6 µg/mL (≈ 0.649 µM) | MIC (Candida kefir 46764): 0.1 µg/mL (≈ 0.108 µM) | MIC [1]: 0.1 µg/mL (≈ 0.108 µM) | MIC [2]: 0.1 µg/mL (≈ 0.108 µM) | MIC [3]: 0.3 µg/mL (≈ 0.325 µM) | inhibition at 0.035 µg/mL (Candida albicans; Candida albicans, read-out: inhibitory effect): ~30% | inhibition at 0.07 µg/mL (Candida albicans; Candida albicans, amphotericin B alone, 70 ng/ml, read-out: inhibitory effect): ~25% | inhibition at 0.105 µg/mL (Candida albicans; Candida albicans, amphotericin B alone, 105 ng/ml, read-out: inhibitory effect): ~43% | inhibition at 0.14 µg/mL (Candida albicans; Candida albicans, amphotericin B alone, 140 ng/ml, read-out: inhibitory effect): ~55% | inhibition at 0.175 µg/mL (Candida albicans; Candida albicans, amphotericin B alone, 175 ng/ml, read-out: inhibitory effect): ~84% | enhancement of inhibitory effect (Candida albicans; amphotericin B 70 ng/ml + extract EB-273 about 8-12 μg/ml or greater vs. amphotericin B alone): nearly four-fold | inhibitory effect (Candida albicans; amphotericin B 70 ng/ml + extract EB-273 at about 8-12 μg/ml or greater): ~100% | enhancement of activity (Candida albicans; amphotericin B 105 ng/ml + extract EB-273 vs. amphotericin B alone): approximate two-fold enhancement | enhancement of activity (Candida albicans; amphotericin B 140 ng/ml + extract EB-273 vs. amphotericin B alone): approximate two-fold enhancement | interaction between amphotericin B and ecomycin extract (isobolographic analyses) (Candida albicans; amphotericin B + ecomycin extract EB-273, range of dosage responses): synergistic rather than additive | inhibition of C. albicans (Candida albicans; amphotericin B alone, 210 ng/ml): nearly complete inhibition | reduction of amount of amphotericin B required to effectively suppress growth of Candida (Candida albicans; in combination with the lipopeptides composition): at least 30% | reduction of amphotericin B concentration required for substantially complete inhibition (Candida albicans; with EB-273, [210 ng/ml-175 ng/ml]/210×100): 16% | reduction of amphotericin B concentration required for substantially complete inhibition (Candida albicans; with a suitable concentration of EB-273, fourth of four): 66% | reduction of amphotericin B concentration required for substantially complete inhibition (Candida albicans; with a suitable concentration of EB-273, second of four): 33% | reduction of amphotericin B concentration required for substantially complete inhibition (Candida albicans; with a suitable concentration of EB-273, third of four): 50% | toxicity, undesirable side-effects [4]: leucopenia, thrombocytopenia, renal tubular acidosis, hypokalemia, hypomagnesemia, headaches, nausea, and anemia | oral absorption [5]: not adsorbed orally
